Test system: Romaine lettuce (Lactuca sativa L.) plants
Assay: Post-emergence herbicidal activity on potted Romaine lettuce plants (soil or foliar application)
Type: in vivo
Details: foliar application, lettuce at 2 to 3 leaves, two weeks after treatment
Protocol: The tests were performed on Romaine lettuce (Lactuca sativa L.) plants at the stage 2 to 3 leaves. The plants were grown in mini-pots packed with soil, dimensions 2×2×5 cm, one plant per mini-pot. Test compounds were dissolved in 0.1% aqueous solution water solution of Silwet adjuvant to final concentrations ranging from 0 (Control) to 0.0001%. The test compounds were applied on soil (1 ml per pot) or foliar with airbrush (0.1 ml per pot). Each concentration was tested on 20 plants. Two weeks after the treatment the herbicidal effects of the respective test material were visually evaluated (aboveground part and roots. Then the aboveground part of the plants was neatly cut and weighed (wet weight) to assess the growth inhibition caused by the test compound. The growth inhibition (GI) was calculated as following: […]
Where Mt and Mc are median wet weight of treated and control plants, respectively. In the context of the invention, the herbicidal effect was assessed by concentration of the compound causing more than 85% of Growth Inhibition (GI) or irreversible damage of the plants (Table 3). Herbicidal activity of selected DHAAs is summarized in Table 4 (soil application) and Table 5 (Foliar application).

Compound	Score (test material causing more than 85% of Growth Inhibition or irreversible plant damage)
2-(4-methylphenyl)-2-oxoethyl(2-chloro-1,3-thiazol-4-yl)(difluoro)acetate [compound 5738]	moderate (0.5)
O=C(O)C(F)(F)c1ccsc1C(F)(F)F [compound 5728, difluoro[2-(trifluoromethyl)thiophen-3-yl]acetic acid]	strong (0.01 to 0.05)
2-(2-methoxyethoxy)ethyl(2-chloro-1,3-thiazol-4-yl)(difluoro)acetate [compound 5746]	strong (0.01 to 0.05)
2,5,8,11,14-pentaoxahexadecan-16-yl 2-(2-chloro-1,3-thiazol-4-yl)-2,2-difluoroacetate [compound 5778]	moderate (0.5)
(2-bromophenyl)methyl(2,5-dichlorothiophen-3-yl)(difluoro)acetate [compound 5747]	moderate (0.5)
2-(2-methoxyethoxy)ethyl(2-chloro-1,3-thiazol-4-yl)(difluoro)acetate [compound 5771]	strong (0.01 to 0.05)
2-(2-bromo-1,3-thiazol-4-yl)-2,2-difluoroacetic acid [compound 5730]	strong (0.01 to 0.05)
(2-bromophenyl)methyl(2,5-dichlorothiophen-3-yl)(difluoro)acetate [compound 5772]	moderate (0.5)
O=C(OCc1ccccc1)C(F)(F)c1cc(Cl)sc1Cl [compound 5709, benzyl(2,5-dichlorothiophen-3-yl)(difluoro)acetate]	moderate (0.5)
(6-bromopyridin-2-yl)methyl(2,5-dichlorothiophen-3-yl)acetate [compound 5759]	strong (0.01 to 0.05)
(4-bromophenyl)methyl(2,5-dichlorothiophen-3-yl)(difluoro)acetate [compound 5768]	strong (0.01 to 0.05)

Same assay, conditions: soil application, lettuce at 2 to 3 leaves, two weeks after treatment

Compound	Score (test material causing more than 85% of Growth Inhibition or irreversible plant damage)
2-(4-methylphenyl)-2-oxoethyl(2-chloro-1,3-thiazol-4-yl)(difluoro)acetate [compound 5738]	strong (0.01 to 0.05)
O=C(O)C(F)(F)c1ccsc1C(F)(F)F [compound 5728, difluoro[2-(trifluoromethyl)thiophen-3-yl]acetic acid]	strong (0.01 to 0.05)
2-(2-methoxyethoxy)ethyl(2-chloro-1,3-thiazol-4-yl)(difluoro)acetate [compound 5746]	strong (0.01 to 0.05)
(6-bromopyridin-2-yl)methyl2-(2,5-dichlorothiophen-3-yl)-2,2-difluoroacetate [compound 5757]	strong (0.01 to 0.05)
(2-bromophenyl)methyl(2,5-dichlorothiophen-3-yl)(difluoro)acetate [compound 5747]	moderate (0.5)
2-(2-bromo-1,3-thiazol-4-yl)-2,2-difluoroacetic acid [compound 5730]	strong (0.01 to 0.05)
3-(2-chlorothiophen-3-yl)-3,3-difluoro-2-hydroxypropanenitrile [compound 5761]	strong (0.01 to 0.05)
NCCc1cc(Cl)sc1Cl [compound 584, 2-(2,5-dichlorothiophen-3-yl) ethan-1-amine]	weak (1.0)
(2-bromophenyl)methyl(2,5-dichlorothiophen-3-yl)(difluoro)acetate [compound 5772]	strong (0.01 to 0.05)
(6-bromopyridin-2-yl)methyl(2,5-dichlorothiophen-3-yl)acetate [compound 5759]	strong (0.01 to 0.05)
(4-bromophenyl)methyl(2,5-dichlorothiophen-3-yl)(difluoro)acetate [compound 5768]	moderate (0.5)

Test system: Seeds of Lettuce R. (Super-Jericho)
Assay: Filter paper bioassay with lettuce seeds: germination and early plant development, Minimal Effective Concentration (MEC)
Type: in vivo
Details: lettuce seeds on filter paper, 0 to 1 mmol/l, visually assessed after 6 days
How it was run: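 Non-sterilized Super-Jericho lettuce seeds, 10 per dish, on filter paper wetted with aqueous test solution at 0–1 mmol/l. Kept 48 h dark, then 4 days at 6/18 dark/light. MEC is the lowest concentration causing no germination or radicle/shoot malformation by visual scoring at day 6; at least two repeats.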

Compound	Score (activity score of Minimal Effective Concentration, MEC)
2-(4-methylphenyl)-2-oxoethyl(2-chloro-1,3-thiazol-4-yl)(difluoro)acetate [compound 5738]	very strong
O=C(O)C(F)(F)c1ccsc1C(F)(F)F [compound 5728, difluoro[2-(trifluoromethyl)thiophen-3-yl]acetic acid]	Strong (0.01 mM)
2-(2-methoxyethoxy)ethyl(2-chloro-1,3-thiazol-4-yl)(difluoro)acetate [compound 5746]	very strong
(6-bromopyridin-2-yl)methyl2-(2,5-dichlorothiophen-3-yl)-2,2-difluoroacetate [compound 5757]	Strong (0.01 mM)
2-oxo-2-phenylethyl(2-chloro-1,3-thiazol-4-yl)(difluoro)acetate [compound 5741]	very strong
2,5,8,11,14-pentaoxahexadecan-16-yl 2-(2-chloro-1,3-thiazol-4-yl)-2,2-difluoroacetate [compound 5778]	very strong
(2-bromophenyl)methyl(2,5-dichlorothiophen-3-yl)(difluoro)acetate [compound 5747]	very strong
O=C(Cc1ccc(Br)cc1)C(F)(F)c1csc(Cl)n1 [compound 5756, 3-(4-bromophenyl)-1-(2-chloro-1,3-thiazol-4-yl)-1,1-difluoropropan-2-one]	very strong
3-(2,5-dichlorothiophen-3-yl)-2-oxopropanoic acid [compound 5612]	Strong (0.01 mM)
NCCCCc1cc(Cl)sc1Cl [compound 5657, 4-(2,5-dichlorothiophen-3-yl)butan-1-amine]	Moderate (0.1 mM)
NC(N)=NCCc1cc(Cl)sc1Cl [compound 5769, N″-[2-(2,5-dichlorothiophen-3-yl)ethyl]guanidine]	Strong (0.01 mM)
2,2-difluoro[2-(trifluoromethyl)-1,3-thiazol-5-yl]acetic acid [compound 5700]	Moderate (0.1 mM)
O=C(O)CNC(=O)C(F)(F)c1cc(Cl)sc1Cl [compound 5644, [2-(2,5-dichlorothiophen-3-yl)(difluoro)acetamido]acetic acid]	Strong (0.01 mM)
2-(2-methoxyethoxy)ethyl(2-chloro-1,3-thiazol-4-yl)(difluoro)acetate [compound 5771]	very strong
O=C(Cc1csc(Cl)n1)OCc1ccccc1 [compound 5758, benzyl 2-(2-chloro-1,3-thiazol-4-yl)acetate]	Strong (0.01 mM)
(4-bromophenyl)methyl(2,5-dichlorothiophen-3-yl)acetate [compound 5735]	strong.strong
2,2-difluoro-2-[5-(trifluoromethyl)-1,3-thiazol-2-yl]acetic acid [compound 5710]	Strong (0.01 mM)
2-(2-bromo-1,3-thiazol-4-yl)-2,2-difluoroacetic acid [compound 5730]	very strong
3-(2-chlorothiophen-3-yl)-3,3-difluoro-2-hydroxypropanenitrile [compound 5761]	Strong (0.01 mM)
NCCc1cc(Cl)sc1Cl [compound 584, 2-(2,5-dichlorothiophen-3-yl) ethan-1-amine]	moderate
(2-bromophenyl)methyl(2,5-dichlorothiophen-3-yl)(difluoro)acetate [compound 5772]	Strong (0.01 mM)
O=C(OCc1ccccc1)C(F)(F)c1cc(Cl)sc1Cl [compound 5709, benzyl(2,5-dichlorothiophen-3-yl)(difluoro)acetate]	very strong
(6-bromopyridin-2-yl)methyl(2,5-dichlorothiophen-3-yl)acetate [compound 5759]	very strong
(4-bromophenyl)methyl(2,5-dichlorothiophen-3-yl)(difluoro)acetate [compound 5768]	Strong (0.01 mM)
Cc1sc(C(F)(F)F)nc1C(F)(F)C(=O)O [compound 5717, 2,2-difluoro-2-[5-methyl-2-(trifluoromethyl)-1,3-thiazol-4-yl]acetic acid]	Strong (0.01 mM)
2-chloro-4-(2-hydrazinylethyl)-1,3-thiazole [compound 5702]	Moderate (0.1 mM)
2-oxo-2-(pyridin-2-yl)ethyl(2-chloro-1,3-thiazol-4-yl)(difluoro)acetate [compound 5740]	very strong
NC(=O)Cc1cc(Cl)sc1Cl [compound 5609, 2-(2,5-dichlorothiophen-3-yl)acetamide]	Strong (0.01 mM)

Test system: Seeds of Lettuce R. (Super-Jericho)
Assay: Filter paper bioassay with lettuce seeds: germination, Fully Effective Concentration (FEC)
Type: in vivo
Details: lowest concentration mostly preventing lettuce seed germination, assessed after 6 days
Source text: Materials: Seeds of Lettuce R. (Super-Jericho, non-sterilized) were obtained from Ben Shahar Moshe Ltd., 99% purity. The test compounds listed in the Table 2 below were synthetized de novo or purchased from different vendors.
Filter Paper Bioassays with Lettuce seeds: The protocol is following Bertin et al. 2009 and Movellan et al. 2014 with specified modifications as described below.
Seeds were placed on Whatman no. 1 filter paper (Whatman, Middlesex, U.K.) in Petri dishes (10 seeds per plate) with 2.0 ml of aqueous solution of a test material in concentration ranged from 0 (control) to 1 mmol/l were placed in a tray tilted at 45°. The trays were kept in dark for 48 hours and then transferred to the growth chamber with 6/18 dark/light cycle for 4 days. Each experiment was performed at least with two repeats.
The development of plants' radicle and shoots were visually assessed 6 days after the beginning of the test to determine Fully Effective Concentration (FEC) of a test material. In the context of the invention, FED is defined as the lowest concentration level of a test material that mostly preventing seeds germination.

Compound	FEC (Fully Effective Concentration) [mM]
2-(4-methylphenyl)-2-oxoethyl(2-chloro-1,3-thiazol-4-yl)(difluoro)acetate [compound 5738]	0.010
O=C(O)C(F)(F)c1ccsc1C(F)(F)F [compound 5728, difluoro[2-(trifluoromethyl)thiophen-3-yl]acetic acid]	1.000
2-(2-methoxyethoxy)ethyl(2-chloro-1,3-thiazol-4-yl)(difluoro)acetate [compound 5746]	0.001
(6-bromopyridin-2-yl)methyl2-(2,5-dichlorothiophen-3-yl)-2,2-difluoroacetate [compound 5757]	0.100
2-oxo-2-phenylethyl(2-chloro-1,3-thiazol-4-yl)(difluoro)acetate [compound 5741]	0.050
2,5,8,11,14-pentaoxahexadecan-16-yl 2-(2-chloro-1,3-thiazol-4-yl)-2,2-difluoroacetate [compound 5778]	5.000
(2-bromophenyl)methyl(2,5-dichlorothiophen-3-yl)(difluoro)acetate [compound 5747]	0.500
O=C(Cc1ccc(Br)cc1)C(F)(F)c1csc(Cl)n1 [compound 5756, 3-(4-bromophenyl)-1-(2-chloro-1,3-thiazol-4-yl)-1,1-difluoropropan-2-one]	0.010
3-(2,5-dichlorothiophen-3-yl)-2-oxopropanoic acid [compound 5612]	0.100
NCCCCc1cc(Cl)sc1Cl [compound 5657, 4-(2,5-dichlorothiophen-3-yl)butan-1-amine]	0.100
NC(N)=NCCc1cc(Cl)sc1Cl [compound 5769, N″-[2-(2,5-dichlorothiophen-3-yl)ethyl]guanidine]	0.100
2,2-difluoro[2-(trifluoromethyl)-1,3-thiazol-5-yl]acetic acid [compound 5700]	2.000
O=C(O)CNC(=O)C(F)(F)c1cc(Cl)sc1Cl [compound 5644, [2-(2,5-dichlorothiophen-3-yl)(difluoro)acetamido]acetic acid]	1.000
2-(2-methoxyethoxy)ethyl(2-chloro-1,3-thiazol-4-yl)(difluoro)acetate [compound 5771]	0.050
O=C(Cc1csc(Cl)n1)OCc1ccccc1 [compound 5758, benzyl 2-(2-chloro-1,3-thiazol-4-yl)acetate]	0.100
(4-bromophenyl)methyl(2,5-dichlorothiophen-3-yl)acetate [compound 5735]	0.500
2,2-difluoro-2-[5-(trifluoromethyl)-1,3-thiazol-2-yl]acetic acid [compound 5710]	0.100
2-(2-bromo-1,3-thiazol-4-yl)-2,2-difluoroacetic acid [compound 5730]	0.010
3-(2-chlorothiophen-3-yl)-3,3-difluoro-2-hydroxypropanenitrile [compound 5761]	0.100
NCCc1cc(Cl)sc1Cl [compound 584, 2-(2,5-dichlorothiophen-3-yl) ethan-1-amine]	0.500
(2-bromophenyl)methyl(2,5-dichlorothiophen-3-yl)(difluoro)acetate [compound 5772]	0.500
O=C(OCc1ccccc1)C(F)(F)c1cc(Cl)sc1Cl [compound 5709, benzyl(2,5-dichlorothiophen-3-yl)(difluoro)acetate]	0.100
(6-bromopyridin-2-yl)methyl(2,5-dichlorothiophen-3-yl)acetate [compound 5759]	0.010
(4-bromophenyl)methyl(2,5-dichlorothiophen-3-yl)(difluoro)acetate [compound 5768]	0.500
Cc1sc(C(F)(F)F)nc1C(F)(F)C(=O)O [compound 5717, 2,2-difluoro-2-[5-methyl-2-(trifluoromethyl)-1,3-thiazol-4-yl]acetic acid]	0.100
2-chloro-4-(2-hydrazinylethyl)-1,3-thiazole [compound 5702]	2.000
2-oxo-2-(pyridin-2-yl)ethyl(2-chloro-1,3-thiazol-4-yl)(difluoro)acetate [compound 5740]	0.050
NC(=O)Cc1cc(Cl)sc1Cl [compound 5609, 2-(2,5-dichlorothiophen-3-yl)acetamide]	1.000

— patent US20240284907A1, “NOVEL DERIVATIVES OF NON-CODED AMINO ACIDS AND THEIR USE AS HERBICIDES” (FortePhest LTD., priority 2021, published 2024)
